Assay results as given in US20250325625A1, “ANTIMICROBIAL ASSOCIATION IN THE TREATMENT OF P. AERUGINOSA BIOFILM-ASSOCIATED INFECTIONS” (Zambon S.P.A., priority 2022, published 2025).
In brackets after ≈: the same amount, converted by molar mass. Read-outs that look alike come from different tables or passages of the source.

Experiments:
P. aeruginosa strains [1] = test: Antimicrobial susceptibility (MIC), reference broth microdilution method; type: cell-based
Experimental: Fifteen clinical isolates were from CF, a MDR clinical isolate from Respiratory Tract Infection (RTI) from an Intensive Care Unit (ICU), and the reference strain P. aeruginosa PAO1 (Table 1). Identification was performed by MALDI-TOF MS (Bruker, Shimadzu). Antimicrobial susceptibility was determined using the reference broth microdilution method (CLSIMethods2018). Whole genome sequencing of clinical isolates was performed with the Illumina (San Diego, CA, USA) MiSeq platform, using a 2×150 bp paired-end approach. Raw reads were assembled using SPAdes (Bankevich et al. 2012 J Comput Biol 19(5):455-77.), and draft genomes were used to determine MLST- and O-types at the Oxford PubMLST site (https://pubmlst.org/) (Jolley et al. 2018 Wellcome Open Res 3:124) and at the Center for Genomic Epidemiology site (https://cge.cbs.dtu.dk/services/PAst-1.0/) (ThraneJCM2016), respectively. The complete genome of P. aeruginosa Z154 was obtained by combining results from Illumina with those obtained using the Oxford Nanopore Technologies (Oxford, UK) MinION platform, and de novo assembly was generated using Unicycler v0.4.4.

[2] = system: P. aeruginosa preformed biofilms; test: Biofilm susceptibility testing, Nunc-TSP lid system (Calgary biofilm device), preformed biofilms; type: cell-based; settings: P. aeruginosa Z154, NAC 8000 mg/L
Experimental: In the present invention the Calgary biofilm device (also referred to as Nunc-TSP lid system in the experimental part) was the method selected to test the in vitro antibiofilm activity of colistin and NAC, alone or in combination. NAC stock solutions (100 g/L) were prepared immediately before use. NAC powder (Zambon, Bresso, Italy) was dissolved in sterile distilled water, pH was adjusted at 6.5-6.8 with NaOH 10 M and the solution was filtered through a 0.22-μm membrane filter. All experiments were performed in cation-adjusted Mueller-Hinton broth (CAMHB) (Becton Dickinson, Milan, Italy), unless otherwise specified, starting from an appropriately concentrated medium to avoid broth dilution when NAC solution were used.
Colistin Colistin stock solutions (10 mg/L) were prepared immediately before use, by dissolving colistin powder (colistin sulfate, AppliChem, Darmstadt, Germany) in sterile distilled water.
Assay. Biofilm susceptibility testing was first performed using the Nunc-TSP lid system (Thermo Fisher Scientific, Waltham, MA, USA), as described previously (Harrison J J et al., Nat Protoc, 2010; 5: 1236-54). Briefly, biofilms were grown for 24 hours in CAMHB at 35° C. under static conditions. […] Median cfu per peg (cfu/peg) was then determined by plating 10 μL of appropriate dilutions of the recovery medium onto tryptic soy agar (TSA) (Oxoid) and incubating for 24 hours at 35° C. […]

[3] = system: P. aeruginosa Z154 and Z34 preformed biofilms in ASM; test: Artificial Sputum Medium (ASM) biofilm model; type: cell-based
Experimental: Methods. The potential antibiofilm synergism of NAC/colistin combinations was further investigated using an in vitro ASM biofilm model (Kirchner et al. 2012 Immunology 64:e3857), in order to mimic P. aeruginosa biofilm conditions within the CF mucus. […] In brief, biofilms were grown in ASM in 24-well tissue culture treated plates, for 72 hours at 35° C. under static conditions. Preformed biofilms were then exposed to NAC 8000 mg/L and colistin 64 mg/L, alone and in combination. […] After 24 hours of exposure (i.e., 35° C., static conditions), bacterial biofilms were disrupted by 30 minutes of sonication followed by manual pipetting, and the median cfu per mL (cfu/mL) was determined following the same protocol described for the Nunc-TSP lid assay. Data from this biofilm model were obtained in at least three independent experiments, with at least twelve replicates per condition per experiment.

[4] = system: collection of respiratory pathogens; settings: high NAC concentrations; Landini et al. 2016; cited from earlier work
[5] = system: P. aeruginosa Z154 planktonic culture; test: Time-kill assays against planktonic cultures under aerobic and anaerobic conditions; type: cell-based; settings: colistin concentration higher than 0.25 mg/L, data not shown
Experimental: Methods. Time-kill assays were performed according to CLSI guidelines (CLSI Methods M26A) with the colistin-susceptible strain Z154. Colistin 0.25 mg/L was tested alone and in combination with NAC 8000 mg/L under both aerobic and anaerobic conditions. […] The medium (CAMHB) used to obtain anoxic cultures was placed under anaerobic atmosphere by using AnaeroGen kit (Oxoid) for 3 days prior to use and during the whole experiment. The killing curves were carried out in borosilicate glass bottles with a final volume of 20 mL of CAMHB. At 0, 2, 4, 8 and 24 hours of exposure ten-fold dilutions were plated on TSA, and the number of cfu/mL was determined (detection limit, 17 cfu/mL). Data were obtained from at least four independent experiments, with two replicates per condition per experiment.

P. aeruginosa strains [6] = test: Antimicrobial susceptibility (MIC), reference broth microdilution method; type: cell-based; settings: isolate FC237, in the presence of NAC

CC(=O)N[C@@H](CS)C(=O)O [NAC, N-acetylcysteine]
MIC (P. aeruginosa strains [1]; Pseudomonas aeruginosa, PAO1, strain PAO1, non-mucoid, wound, read-out: MIC): > 64 mg/mL
MIC (P. aeruginosa strains [1]; Pseudomonas aeruginosa, strain FC237, non-mucoid, CF, colistin-resistant, read-out: MIC): > 32 mg/mL
MIC (P. aeruginosa strains [1]; Pseudomonas aeruginosa, strain FC238, non-mucoid, CF, colistin-resistant, read-out: MIC): > 32 mg/mL
MIC (P. aeruginosa strains [1]; Pseudomonas aeruginosa, strain FZ99, non-mucoid, RTI ICU, colistin-resistant, read-out: MIC): 64 mg/mL (≈ 392 mM)
MIC (P. aeruginosa strains [1]; Pseudomonas aeruginosa, strain M1, mucoid, CF, read-out: MIC): 16 mg/mL (≈ 98 mM)
MIC (P. aeruginosa strains [1]; Pseudomonas aeruginosa, strain M4, mucoid, CF, read-out: MIC): 32 mg/mL (≈ 196 mM)
MIC (P. aeruginosa strains [1]; Pseudomonas aeruginosa, strain M7, mucoid, CF, read-out: MIC): 64 mg/mL (≈ 392 mM)
MIC (P. aeruginosa strains [1]; Pseudomonas aeruginosa, strain M13, mucoid, CF, read-out: MIC): 32 mg/mL (≈ 196 mM)
MIC (P. aeruginosa strains [1]; Pseudomonas aeruginosa, strain M19, mucoid, CF, read-out: MIC): 64 mg/mL (≈ 392 mM)
MIC (P. aeruginosa strains [1]; Pseudomonas aeruginosa, strain M25, mucoid, CF, read-out: MIC): 16 mg/mL (≈ 98 mM)
MIC (P. aeruginosa strains [1]; Pseudomonas aeruginosa, strain M32, mucoid, CF, read-out: MIC): 16 mg/mL (≈ 98 mM)
MIC (P. aeruginosa strains [1]; Pseudomonas aeruginosa, strain M42, mucoid, CF, read-out: MIC): > 32 mg/mL
MIC (P. aeruginosa strains [1]; Pseudomonas aeruginosa, strain Z33, non-mucoid, CF, read-out: MIC): 16 mg/mL (≈ 98 mM)
MIC (P. aeruginosa strains [1]; Pseudomonas aeruginosa, strain Z34, non-mucoid, CF, read-out: MIC): > 16 mg/mL
MIC (P. aeruginosa strains [1]; Pseudomonas aeruginosa, strain Z35, non-mucoid, CF, read-out: MIC): 16 mg/mL (≈ 98 mM)
MIC (P. aeruginosa strains [1]; Pseudomonas aeruginosa, strain Z152, mucoid, CF, read-out: MIC): 8 mg/mL (≈ 49 mM)
MIC (P. aeruginosa strains [1]; Pseudomonas aeruginosa, strain Z154, mucoid, CF, read-out: MIC): 16 mg/mL (≈ 98 mM)
antibiofilm activity of NAC alone [2]: observed
antibiofilm activity of NAC alone ([3]; P. aeruginosa Z154, ASM model, NAC 8000 mg/L): not observed
effect on activity of carbapenems [4]: compromised the activity of carbapenems
interference with activity of the most commonly used antibiotics [4]: do not interfere

colistin [CST]
colistin MIC values (P. aeruginosa strains [1]; colistin-susceptible strains): 1 to 2 mg/L
MIC (P. aeruginosa strains [1]; strain FC237, non-mucoid, CF, colistin-resistant): 0.512 mg/mL
MIC (P. aeruginosa strains [1]; strain FC238, non-mucoid, CF, colistin-resistant): 0.008 mg/mL
MIC (P. aeruginosa strains [1]; strain FZ99, non-mucoid, RTI ICU, colistin-resistant): 0.004 mg/mL
MIC (P. aeruginosa strains [1]; strain M1, mucoid, CF): 0.002 mg/mL
MIC (P. aeruginosa strains [1]; strain M4, mucoid, CF): 0.002 mg/mL
MIC (P. aeruginosa strains [1]; strain M7, mucoid, CF): 0.002 mg/mL
MIC (P. aeruginosa strains [1]; strain M13, mucoid, CF): 0.001 mg/mL
MIC (P. aeruginosa strains [1]; strain M19, mucoid, CF): 0.001 mg/mL
MIC (P. aeruginosa strains [1]; strain M25, mucoid, CF): 0.002 mg/mL
MIC (P. aeruginosa strains [1]; strain M32, mucoid, CF): 0.002 mg/mL
MIC (P. aeruginosa strains [1]; strain M42, mucoid, CF): 0.002 mg/mL
MIC (P. aeruginosa strains [1]; strain PAO1, non-mucoid, wound): 0.002 mg/mL
MIC (P. aeruginosa strains [1]; strain Z33, non-mucoid, CF): 0.001 mg/mL
MIC (P. aeruginosa strains [1]; strain Z34, non-mucoid, CF): 0.002 mg/mL
MIC (P. aeruginosa strains [1]; strain Z35, non-mucoid, CF): 0.001 mg/mL
MIC (P. aeruginosa strains [1]; strain Z152, mucoid, CF): 0.002 mg/mL
MIC (P. aeruginosa strains [1]; strain Z154, mucoid, CF): 0.002 mg/mL
concentration of colistin which allowed to observe a synergism ([3]; ASM model, with NAC 8000 mg/L): 32 ×MIC
antibiofilm activity of colistin in absence of NAC ([3]; higher colistin concentrations (>64 mg/L), data not shown): eradication of the biofilm cultures
colistin antibiofilm activity ([3]; lower colistin concentrations, preliminary experiments, data not shown): did not show either colistin antibiofilm activity
effect on planktonic cultures [5]: eradication of the planktonic cultures
colistin MIC reduced in the presence of NAC (fraction of MIC) (P. aeruginosa strains [6]): 1/64
